From patent US10927070B2, “Compositions and methods for treating cancer” (Cedars-Sinai Medical Center, priority 2016, dated 2021) come the findings set out here.

Entries after “also recorded” stand apart in the source; their conditions may differ.

Series [1] has as its target T1, purified recombinant OC2 HOX domain (Homo sapiens, UniProt O95948).
T1 construct: made in house
T1 sequence (O95948 426-485 limits assumed): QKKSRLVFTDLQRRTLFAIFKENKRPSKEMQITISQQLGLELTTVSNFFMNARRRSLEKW
Put plainly: Surface plasmon resonance (SPR) binding of compound to immobilized OC2-HOX domain. On the procedure: FIG. 13 depicts in accordance with various embodiments of the invention, Compound CSRM617 binds to ONECUT2 in a dose-dependent manner. To measure binding features of CSRM617, the OC2-HOX domain was recombinantly produced. Purified OC2-HOX binding domain was next immobilized on a HisCap sensor chip and CSRM617 was analyzed at serial doubling concentrations maximized at 100 μM.
FIG. 25A-FIG. 25C depict in accordance with various embodiments of the invention, FIG. 25A: (Left panel) representative sensorgram showing dose-dependent OC2-Compound CSRM617 interaction measured by surface plasmon resonance (SPR). Real-time binding was quantified by immobilizing biotinylated OC2 protein on the streptavidin biosensor with varying concentrations of Compound CSRM617 1.56-100 μm). (Right panel) OC2 binding to the experimentally determined OC2 binding site on the PEG10 promoter assayed by SPR. FIG. 25B: suppression of PEG10 protein expression in 22Rv1 tumors. FIG. 25C: suppression of PEG10 protein expression in 22Rv1 tumors.
(§1) To assess whether OC2 might be inhibited with a small molecule, we developed a structural model of OC2 binding to DNA using homology modeling, and conducted a virtual screen of a chemical library consisting of […] compounds. 15 compounds were selected for biological activity testing using in vitro assays. One compound, compound CSRM617, was deemed to be biologically active and was selected for further study. […] To evaluate the selectivity of Compound CSRM617 for genes regulated by OC2, we generated gene expression microarray data from 22Rv1 cells treated with Compound CSRM617 for 4, 6 and 16 h. […] As described above, we identified PEG10 as a gene directly regulated by OC2 binding to the PEG10 promoter. […] The OC2 HOX fragment bound with high affinity (Kd=1 nM) to a DNA probe corresponding to the experimentally determined OC2 binding motif in the PEG10 promoter (FIG. 25A, right panel).

For another series, the system named is 22RV1. As to the kind of experiment: Cell-Titer GLO viability / proliferation in 22RV1. Format: cell-based, human. The protocol:
(§2) ACTB and GAPDH expression levels were used for normalization. […] Cells were seeded in 96-well plates at 500 cells per well in a total volume of 100 ul media containing 10% FBS. Serially diluted compound CSRM617 was added to the cells 24 h later. After 48 h incubation, cell viability was assessed by Cell-Titer GLO (Promega). The values were normalized and IC50 was calculated using GraphPad Prism software. […] RWPE-1 is a benign prostate cell line.

The subject of a further series is 22Rv1 metastases. As to the kind of experiment: 22Rv1 intracardiac injection metastasis model. Format: in vivo, SCID mice. The settings on record: 50 mg/kg daily; 4 w after intracardiac injection. The protocol: FIG. 15 depicts in accordance with various embodiments of the invention, Compound CSRM617 inhibits metastasis. 22Rv1-luciferase labeled cells were injected intracardially and mice were randomized (n=7 per group) to receive vehicle or 50 mg/kg^−1 CSRM617, daily. BLI images of mice bearing metastatic tumors 4 w after the injection (left) and graphical representation of normalized BLI signals (right). Mean±SD (n=7 per group) is shown; **P<0.01.
(§3) To determine whether Compound CSRM617 is effective against CRPC metastases, 22Rv1 cells were injected intracardially in SCID mice, and the animals were subsequently treated with the above dose of the compound for several weeks. […] To test for evidence of bioactivity of Compound CSRM617 in situ, PEG10 protein levels were measured using IHC followed by digital imaging in adrenal gland tumors.

In series [2] the test system is 22RV1 prostate cancer cells. As to the kind of experiment: Apoptosis induction by cleaved Caspase-3 and PARP in 22RV1. Format: cell-based, human. The text has this: GAPDH served as a loading control.
The test system of the next series is 22Rv1 xenografts. As to the kind of experiment: Subcutaneous 22Rv1 xenograft growth in mice. Format: in vivo. To be noted: established 22Rv1 xenografts; 50 mg/Kg/d; 50 mg/kg/day.
Series [3] in a line: Tolerability in treated mice (body weight, feeding, behavior). The series is classed as in vivo. To be noted: 50 mg/Kg/d. The protocol: as §3
The next series deals with LNCaP. Put plainly: Cell proliferation in vitro in LNCaP. Format: cell-based, human. The protocol: as §2
For a further series, the system named is C4-2. As to the kind of experiment: Cell-Titer GLO viability / proliferation in C4-2. The series is classed as cell-based, human. On the procedure: as §2
The subject of a further series is PEG10 protein. Put plainly: PEG10 protein by IHC and digital imaging in tumors of treated mice. The settings on record: adrenal gland tumors; IHC. Format: in vivo. The protocol: as §3
A further series has as its system OC2 target genes. As to the kind of experiment: Gene expression microarray and GSEA of OC2 target genes in 22Rv1. Format: cell-based, human. The settings on record: 10 μM, 4, 6 and 16 h. The protocol:
FIG. 14A-FIG. 14E depict in accordance with various embodiments of the invention, Compound CSRM617 perturbs OC2-regulated genes and suppresses 22Rv1 tumor growth in mice. To evaluate the specificity of CSRM617 for genes regulated by OC2, we generated gene expression microarray data from 22Rv1 cells treated with the compound at a concentration of 10 μM for 4, 6 and 16 h.
as §1

Series [4] relates to human prostate cancer cell lines. As to the kind of experiment: Growth, apoptosis and IC50 across prostate cell lines versus OC2 expression. The series is classed as cell-based. To be noted: PC cell lines that express medium to high levels of OC2. The protocol: as §2, §1
A further series deals with PEG10 mRNA. As to the kind of experiment: PEG10 mRNA expression in 22Rv1 (microarray). The series is classed as cell-based, human. To be noted: 10 μM, 4, 6 and 16 h. On the procedure: FIG. 16A-FIG. 16C depict in accordance with various embodiments of the invention, that OC2 activates PEG10, a driver of transdifferentiation from adenocarcinoma to neuroendocrine cancer. […] FIG. 16C: we have generated gene expression microarray data from 22Rv1 cells treated with the compound at a concentration of 10 μM for 4, 6 and 16 h. […] By inhibiting OC2 with compound CSRM617 the expression levels of the NE driver PEG10 are reduced.
as §1

Series [5] is described as follows: Solubility relative to CSRM617. The series is classed as physicochemical.
The test system of the next series is 22Rv1 cells. As to the kind of experiment: CellTiter-Glo cell viability of CSRM617 derivatives in 22Rv1. The series is classed as cell-based, human. To be noted: for potency (IC50) compared with compound CSRM617: 100 μM to 0.2 μM, 48 hours; for cell viability: 48 hours post treatment, CellTiter-Glo. On the procedure: FIG. 17A: 22Rv1 cells were plated at a density of 1000 cells per well, in triplicate, in a 96 well plate. The next day cells were exposed to compound CSRM617, several derivatives or vehicle (1% DMSO) at a concentration of 25 μM. Viability was measured 48 hours post treatment using CellTiter-Glo Luminescent Cell Viability Assay (Promega). FIG. 17B: 22Rv1 cells were plated at a density of 1000 cells per well, in triplicate, in a 96 well plate. The next day, TO reading was collected and cells were exposed to compound CSRM617, the derivatives or vehicle (1% DMSO) at 2-fold concentration ranging from 100 μM to 0.2 μM. Viability was measured 48 hours post treatment using CellTiter-Glo Luminescent Cell Viability Assay (Promega).

With `N[C@@H](CO)C(=O)N/N=C/c1ccc(O)c(O)c1O` [CSRM617], the “direct binding to OC2” value in [1] was “binds directly to OC2”. Also, the Kd in series [1] (SPR, serial doubling concentrations up to 100 μM) was 7.43 µM. The “sensitivity (IC50) to compound” value is “highest sensitivity” in the series on 22RV1 (22RV1, 48 h incubation) and “highest sensitivity” in the series with C4-2 (48 h incubation). The “cell proliferation in vitro” value in the series with 22RV1 (22Rv1), with LNCaP and in the series on C4-2 was “inhibited cell proliferation” each time. In the series with 22Rv1 metastases, the “onset and growth of diffuse metastases (BLI)” value is “reduces significantly the onset and growth of diffuse metastases; also recorded: inhibited onset and growth of diffuse metastases”. For the same compound, the “apoptosis (cleaved Caspase-3 and PARP)” value in [2] is reported as “induces apoptosis”. The subcutaneous tumor growth entry in the series on 22Rv1 xenografts is “reduces tumor growth; also recorded: inhibited subcutaneous growth”. The body weight result in [3] is recorded as “did not affect body weight”. For the same compound, the “feeding patterns or behavior” value in series [3] is “did not affect”. The “PEG10 protein levels in tumors” value with PEG10 protein is given as “significantly down-regulated”. The “perturbation of OC2 target genes (GSEA)” value in the series on OC2 target genes is recorded as “significant perturbation of OC2 target genes”. The apoptosis entry in series [4] was “induced apoptosis”. For the same compound, in series [4], the cell growth entry is “inhibited cell growth”. Further, the “PEG10 mRNA expression” value in the series with PEG10 mRNA is on record as “downregulated in a time-dependent manner”.

For `N[C@@H](CO)C(=O)NNCc1ccc(O)c(O)c1O` [Compound 122], the “direct binding to OC2” value in [1] was “directly bind OC2”. Also, the “solubility compared with compound CSRM617” value in [5] was “improved solubility”. Besides, in the series on 22Rv1 cells, the “potency (IC50) compared with compound CSRM617” value is on record as “comparable activity” and the cell viability entry is reported as “reduces cell viability”.

In the case of `NC(=O)C1CCCCN1C(=O)NCCc1ccc(O)c(O)c1O` (centres unmarked) [Compound 123], the “direct binding to OC2” value in series [1] was “directly bind OC2”. Also, the “solubility compared with compound CSRM617” value in series [5] is given as “improved solubility”. Also, in the series with 22Rv1 cells, the “potency (IC50) compared with compound CSRM617” value is given as “comparable activity” and the cell viability entry is recorded as “reduces cell viability”.

On to `O=C(CNC(=O)Cc1ccc(O)c(O)c1O)NO` [Compound 843], for which, in series [1], the “direct binding to OC2” value is “directly bind OC2”. In addition, the “solubility compared with compound CSRM617” value in series [5] is reported as “improved solubility”. Also, in the series on 22Rv1 cells, the “potency (IC50) compared with compound CSRM617” value is “comparable activity” and the cell viability entry was “reduces cell viability”.

For `CC(=O)NCCC(=O)NCCc1ccc(O)c(O)c1O` [Compound 844], in series [5], the “solubility compared with compound CSRM617” value is reported as “improved solubility”. In the series with 22Rv1 cells, the “potency (IC50) compared with compound CSRM617” value was “comparable activity” and the cell viability entry is “reduces cell viability”.

For `O=C1CCC(C(=O)NCCc2ccc(O)c(O)c2O)CN1` (centres unmarked) [Compound 848], in series [5], the “solubility compared with compound CSRM617” value was “improved solubility”. In the series on 22Rv1 cells, the “potency (IC50) compared with compound CSRM617” value was “comparable activity” and the cell viability result is “reduces cell viability”.
